In patent US20250195556A1, “COMPOSITIONS, KITS, AND METHODS TO INDUCE ACQUIRED CYTORESISTANCE USING STRESS PROTEIN INDUCERS” (FRED HUTCHINSON CANCER RESEARCH CENTER, priority 2014, published 2025):
Several values for one entry are separate records, joined by “and”; a condition that tells them apart may be missing. Identical values can stand only once.

What was measured:
HO-1 [1] = assay: Renal cortical HO-1 mRNA (RT-PCR) and protein (ELISA) after IV myoglobin, SnPP or both (Example 1); type: in vivo, mice
Text: The Glycerol Model of AKI. This is a widely used model of rhabdomyolysis-induced AKI that has been employed worldwide for 50 years. The model was used to test whether prophylactic interventions confer protection against AKI. Basically, the protocol is as follows: Male CD-1 mice (35-45 grams), obtained from Charles River Laboratories, Wilmington, M A were studied. Mice were maintained under standard vivarium conditions and generally housed for 1-3 weeks prior to study. The mice were placed in a cylindrical restraining cage, and then were given a tail vein injection of the test substances (see below) or test substance vehicle. The mice were then returned to their cages. Eighteen hours (hrs) later, the mice were briefly anesthetized by isoflurane inhalation, and given an intramuscular injection of hypertonic (50%) glycerol in a dose of 9 ml/Kg body weight. The dose is divided in two, with half injected into the muscle of each of the hind limbs. The mice were then returned to their cages. Eighteen hrs later, the mice were deeply anesthetized with pentobarbital (50-100 mg/Kg), the abdominal cavity was opened through a midline abdominal incision, a blood sample was obtained from the abdominal vena cava and the kidneys were resected. A kidney cross section was obtained and fixed in formalin for subsequent histologic analysis. The terminal blood samples were analyzed for BUN and creatinine, using commercially available assay kits. The remaining kidney tissue was subjected to cortical dissection, and the cortical tissues were then extracted for protein and RNA. The protein samples were saved for analysis of HO-1 levels, and the RNA samples were subjected to RT-PCR to quantify HO-1 mRNA as well as levels of other stress gene mRNAs (e.g. NGAL, haptoglobin, hemopexin, hepicidin).
Myoglobin+SnPP: To 5 mg of dry myoglobin was added 0.9 ml of PBS+0.1 ml of a stock SnPP solution (50 umole/ml). The resulting final concentrations were 5 mg/ml myoglobin+5 umoles/ml of SnPP. The tail vein was injected with 200 μl of this solution, which equals 1 mg myoglobin+1 umole SnPP. […]
Four hr post myoglobin vs myoglobin+SnPP vs SnPP alone experiments. To confirm that the myoglobin+SnPP has a synergistic effect in inducing HO-1 mRNA and HO-1 protein levels, each of the above combinations have been administered alone via tail vein injection. Four hrs later, the mice were sacrificed as noted above and the kidneys were harvested for assessment of HO-1 mRNA and protein levels. For additional information regarding methods, see Zager et al., Am J Physiol Renal Physiol. 2014 Jul. 30. Pii.

HO-1 [2] = assay: Renal cortical HO-1 mRNA and protein after IV N-Mgb, SnPP or both; type: in vivo, mice
Text: Cytoresistance-inducing reagents. […] (#Mb0360; Sigma) was used as the primary cytoresistance-inducing agent. However, because myoglobin (Mgb) has an inherent nephrotoxic potential (particularly under conditions of volume depletion and aciduria), two approaches were used to mitigate Mgb's potential adverse effects. First, the Mgb was converted into a nitrited form by the addition of equimolar amount of sodium (Na) nitrite. In this regard, nitrite is an ambidentate molecule that directly binds 1:1 to myoglobin Fe either via its oxygen or nitrogen component. Cotton et al. Advanced inorganic chemistry. Hobocken, NJ: Wiley-Interscience, 1999:1355; Silaghi-Dumitrescu et al. Nitric Oxide 2014; 42 C: 32-9. […] Rassaf et al. Circ Res 2014; 114:1601-10; Totzeck et al. Circulation 2012; 126:325-34 [J Clin Invest 1992; 89:989-95]; Totzeck et al. PLOS One 2014; 22: e105951; Hendgen-Cotta et al. Proc Natl Acad Sci USA 2008; 105:10256-61.
(§1) Thirty-two mice were divided into 4 equal groups: (1) control mice; (2) mice treated with 1 mg of N-Mgb injection (as a bolus through the tail vein); (3) mice treated with […] of SnPP (via tail vein); and (4) mice treated with combined N-Mgb 1 SnPP. After either 4 hours (n=16) or 18 hours (n=16), the mice were deeply anesthetized with pentobarbital (50 mg/kg), the abdomen was opened through a midline abdominal incision, and the kidneys were removed. To determine potential effects on extrarenal organs, a liver lobe and the heart were also removed. The tissues were iced and then extracted for protein and RNA (RNeasy Plus Mini; Qiagen, Valencia, California) and subjected to enzyme linked immunosorbent assay (ELISA) and reverse transcriptase polymerase chain reaction (RT-PCR) for HO-1, haptoglobin, and IL-10 protein and messenger RNAs (mRNAs). Zager et al. J Am Soc Nephrol 2014; 25:998-1012; Zager et al. Am J Physiol 2012; 303: F139-48. As an assessment of renal function, control mice and the 18 hour after N-Mgb+SnPP-treated mice had blood urea nitrogen (BUN) and plasma creatinine levels measured. Additionally, transverse 10% formalin fixed kidney sections ([…]) were cut and stained with hematoxylin and eosin (H&E) and periodic acid Schiff (PAS) to further assess potential injury.

IL-10 = assay: Liver IL-10 mRNA and protein after IV N-Mgb, SnPP or both; type: in vivo, mice; conditions: for Liver mRNA: IL-10: control 0.06; for Liver protein: IL-10: control 314
Experimental: as §1

haptoglobin [3] = assay: Liver haptoglobin mRNA and protein after IV N-Mgb, SnPP or both; type: in vivo, mice; parameters: Liver protein: Haptoglobin: unit not given beside the values; conditions: for Liver mRNA: Haptoglobin: control 0.5; for Liver protein: Haptoglobin: control 115.3
Experimental: as §1

haptoglobin [4] = assay: Cardiac haptoglobin mRNA and protein after IV N-Mgb, SnPP or both; type: in vivo, mice; conditions: for Cardiac mRNA: Haptoglobin: control 0.31; for Cardiac protein: Haptoglobin: control 15.6
Experimental: as §1

[5] = test system: cultured proximal tubule (HK-2) cells; conditions: Zager & Burkhart, Kidney Int 1997; cited from earlier work

Structure (SMILES): C=Cc1c2[n-]c(c1C)/C=c1\[n-]/c(c(C)c1C=C)=C\c1[n-]c(c(CCC(=O)O)c1C)/C=c1\[n-]c(c(C)c1CCC(=O)O)=C2.[Sn+4] [SnPP, tin protoporphyrin, reference compound]
- HO-1 protein expression (by ELISA), Average (HO-1 [1]; cortex, 4 hr IV, 1 mg myoglobin, 1 μmole SnPP, PBS 13.5, carrier 21.5): 34.4 ng HO-1/mg protein
- HO-1 protein expression (by ELISA) (HO-1 [1]; cortex, 4 hr IV, 1 mg myoglobin, 1 μmole SnPP, individual mice): 31.5 ng HO-1/mg protein and 20.5 ng HO-1/mg protein and 53.6 ng HO-1/mg protein and 32.2 ng HO-1/mg protein
- HO-1/GAPDH mRNA, Average (HO-1 [1]; kidney, 4 hr post IV injection, control average 1.93): 6.94
- HO-1/GAPDH mRNA (HO-1 [1]; kidney, 4 hr post IV injection, individual mice): 9.72 and 8.25 and 6.95 and 2.85
- Kidney mRNA: HO-1 (HO-1 [2]; 4 h after Rx, control 0.61): 4.38 ± 0.28
- Kidney HO-1 protein (HO-1 [2]; 4 h after Rx, control 13.3): 22.9 ± 2.6
- Kidney mRNA cortex: HO-1 (HO-1 [2]; 18 h after Rx, control 0.61): 0.63 ± 0.06
- Kidney protein: HO-1 (HO-1 [2]; 18 h after Rx, control 13.3): 18 ± 2
- Liver mRNA: IL-10 (IL-10; 4 h after Rx): 0.14 ± 0.1
- Liver protein: IL-10 (IL-10; 4 h after Rx): 485 ± 47
- Liver mRNA: IL-10 (IL-10; 18 h after Rx): 0.05 ± 0.01
- Liver protein: IL-10 (IL-10; 18 h after Rx): 8198 ± 725
- Liver mRNA: Haptoglobin (haptoglobin [3]; 4 h after Rx): 0.32 ± 0.02
- Liver protein: Haptoglobin (haptoglobin [3]; 4 h after Rx): 130.0 ± 8.9
- Liver mRNA: Haptoglobin (haptoglobin [3]; 18 h after Rx): 0.65 ± 0.17
- Liver protein: Haptoglobin (haptoglobin [3]; 18 h after Rx): 212.0 ± 63.6
- Cardiac mRNA: Haptoglobin (haptoglobin [4]; 4 h after Rx): 0.52 ± 0.21
- Cardiac protein: Haptoglobin (haptoglobin [4]; 4 h after Rx): 19.1 ± 2.1
- Cardiac mRNA: Haptoglobin (haptoglobin [4]; 18 h after Rx): 0.59 ± 0.17
- Cardiac protein: Haptoglobin (haptoglobin [4]; 18 h after Rx): 96.1 ± 36.2
- Reduction of Mgb toxicity by SnPP addition [5]: ≤ 85%
